Here are results for four compounds from US10208056B2, “Condensed tricyclic compounds as protein kinase inhibitors” (FUNDACIÓN DEL SECTOR PÚBLICO ESTATAL CENTRO NACIONAL DE …, priority 2015, dated 2019).

The target of assay [1] is T1, intracellular HASPIN (Homo sapiens (Human), UniProt Q8TF76). Description: Cellular HASPIN inhibition assay, western blot phospho H3T3 in synchronized SW620 cells. Format: cell-based. The settings on record: read-out: SW620 PH3(T3) in synchronized cells.
Assay [2] relates to SW620. The assay is described as follows: Combination assay, SW620. Type of assay: cell-based, human. Put shortly:
(§1)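 Cells treated with example compounds combined with chemotherapeutic agents, proliferation read by CellTiter-Glo. Combination index from the Chou–Talalay method (CI <0.8 synergy, 0.8–1.2 additivity, >1.2 antagonism); EC50 of the combination also derived alongside single-agent EC50s.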

For assay [3], the system named is BXPC-3. The assay is described as follows: Combination assay, BXPC-3. Type of assay: cell-based. How it is done: The combination index (CI) of combinations of certain example compounds and various chemotherapeutic agents in the CellTitetI-Glo® in vitro cell proliferation assays may be tested. A combination index score is calculated by the Chou and Talalay method (CalcuSyn software, Biosoft). The strength of synergy is scored using the ranking system Chou and Talalay: CI less than 0.8 indicates synergy, CI between 0.8 and 1.2 indicates additivity and CI greater than 1.2 indicates antagonism.
The EC50 values of representative combinations are also calculated. The individually measured EC50 values of the chemotherapeutic agent and the example compounds are compared to the EC50 value of the combination. The cell lines are characterised by tumor type. Combination assays are performed as described in: “Pim 1 kinase inhibitor ETP-45299 suppresses cellular proliferation and synergizes with PI3K inhibition”. Blanco-Aparicio, Carmen; Collazo, Ana Maria Garcia; Oyarzabal, Julen; Leal, Juan F.; Albaran, Maria Isabel; Lima, Francisco Ramos; Pequeno, Belen; Ajenjo, Nuria; Becerra, Mercedes; Alfonso, Patricia; Reymundo, Maria Isabel; Palacios, Irene; Mateos, Genoveva; Quinones, Helena; Corrionero, Ana; Carnero, Amancio; Pevarello, Paolo; Lopez, Ana Rodriguez; Fominaya, Jesus; Pastor, Joaquin; Bischoff, James R. Cancer Letters (Shannon, Ireland) 2011, 300(2), 145-153

In assay [4] the test system is SW620 cells. The assay is described as follows: Colony formation assay. Format: cell-based, human. The settings on record: SW620 cells treated 11 days. How it is done:
The in vitro potency of the compounds was measured by colony formation assays. SW620 cells in logarithmic growth phase are plated at 800 cells per well in 6-well plates (Solmeglas 13118) in RPMI media (Sigma-Aldrich R6504) supplemented with 10% foetal bovine serum (Sigma-Aldrich F7524), Penicillin/Streptomycin solution diluted 1:100 (Gibco 15070-063), and fungizone (Gibco, 15290-018), and allowed to adhere overnight at 37° C. in 5% CO2. Compounds are then added to the cell media from a final concentration of 10 μM in 10-fold serial dilutions and the cells are incubated at 37° C. in 5% CO2. Every three days the medium is changed by fresh medium and compounds are added again. After 11 days, colonies are washed with PBS and fixed in 0.5% crystal violet (Sigma-Aldrich Ref. V5265), 6% glutaraldehide (Sigma-Aldrich Ref. G5882) for 30 minutes. After extensive washing, colonies are dissolved in 2 ml of 10% glacial acetic acid (Sigma-Aldrich Ref. 537020) and absorbance at 590 nm is measured in the Victor 1420 Multilabel Counter (Perkin Elmer). The absorbance in cells treated with DMSO is taken as hundred percent of proliferation. The percentage of proliferation is finally plotted against concentration for each compound and EC50s for colony formation inhibition are calculated using ActivityBase from IDBS.

The target of assay [5] is T1, intracellular HASPIN. Description: Endogenous phosphoH3 inhibition in SW620 cells growing in 10% FBS. Format: cell-based. The settings on record: read-out: SW620 pH3(T3). How it is done: Endogenous phosphoH3 inhibition can be screened in cells growing in 10% FBS. Cells are plated as described before and treated for 8 h with compounds as described before. Then cells are lysated and phospho H3 evaluated as described before. The percentage of phosphorylated H3 vs total H3 in cells treated with DMSO is taken as hundred percent of phosphorylation. The percentage of H3 phosphorylation is finally plotted against concentration for each compound and EC50s for intracellular HASPIN inhibition are calculated using ActivityBase from IDBS.

Assay [6] relates to HCT116. Description: Combination assay, HCT116. Format: cell-based. Put shortly: as §1
[7] abbreviates: SW620, combination with ABT-751.
[8] abbreviates: SW620, combination with Alisertib.
Where [9] appears, read: SW620, combination with Crizotinib.
Where [10] appears, read: SW620, combination with Elesclomol.
[11] abbreviates: SW620, combination with Oxaliplatin.
Where [12] appears, read: BXPC-3, combination with Crizotinib.
The mark [13] stands for this setting: BXPC-3, combination with Elesclomol.
Where [14] appears, read: HCT116, combination with Alisertib.
Where [15] appears, read: HCT116, combination with Crizotinib.

T1 sequence (Q8TF76 whole entry): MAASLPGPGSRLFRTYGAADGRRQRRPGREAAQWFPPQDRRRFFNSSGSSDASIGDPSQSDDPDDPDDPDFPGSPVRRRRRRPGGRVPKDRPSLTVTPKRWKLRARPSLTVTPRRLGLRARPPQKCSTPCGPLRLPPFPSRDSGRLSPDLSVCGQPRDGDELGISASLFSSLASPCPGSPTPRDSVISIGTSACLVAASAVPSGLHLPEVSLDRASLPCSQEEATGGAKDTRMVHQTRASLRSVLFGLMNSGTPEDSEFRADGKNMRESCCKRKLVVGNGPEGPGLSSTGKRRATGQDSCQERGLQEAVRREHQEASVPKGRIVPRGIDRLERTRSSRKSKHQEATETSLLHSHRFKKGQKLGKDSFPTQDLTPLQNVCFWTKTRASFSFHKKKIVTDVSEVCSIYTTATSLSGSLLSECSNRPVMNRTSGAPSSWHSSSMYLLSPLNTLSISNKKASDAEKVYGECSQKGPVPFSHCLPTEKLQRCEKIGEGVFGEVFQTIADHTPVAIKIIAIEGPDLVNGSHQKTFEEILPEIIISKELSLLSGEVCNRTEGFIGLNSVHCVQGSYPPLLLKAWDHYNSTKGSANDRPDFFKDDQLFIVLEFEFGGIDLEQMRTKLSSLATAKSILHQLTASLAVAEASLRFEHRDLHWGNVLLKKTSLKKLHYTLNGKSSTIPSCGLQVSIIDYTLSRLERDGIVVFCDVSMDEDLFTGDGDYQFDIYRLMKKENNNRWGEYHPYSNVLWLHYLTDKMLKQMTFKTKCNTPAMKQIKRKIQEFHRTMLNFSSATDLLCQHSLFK

`NC(=O)c1cc2c([nH]1)-c1ccncc1O[C@H]2C1CCOCC1` (single isomer, unassigned) [Example 72]: in assay [1] (semiquantitative), the EC50 lay within 500 to 10000 nM.

As usually defined, the GI50 is the concentration that inhibits growth by half. Take `CCn1c(C(N)=O)cc2c1-c1ccncc1OC2(C)C` [Example 43]: the GI50 in assay [2] (Homo sapiens, SW-620, SW620, example compound alone, read-out: CDK8 inh GI50) was 4000 nM; in assay [3] (Homo sapiens, BXPC-3, example compound alone, read-out: CDK8 inh GI50), 5000 nM; in assay [6] (Homo sapiens, HCT-116, HCT116, example compound alone, read-out: CDK8 inh GI50) it was 5000 nM. In addition, the “Combination index (CI)” value amounted to 0.18 in assay [2] (setting [7]); 0.52 in assay [2] (setting [8]); 0.65 in assay [2] (setting [9]); 0.05 in assay [2] (setting [10]); 0.53 in assay [2] (setting [11]); 0.28 in assay [2] (SW620, combination with Taxol). The “Combination index (CI)” value in assay [3] (setting [12]) turned out to be 0.72; in assay [3] (setting [13]), 0.25; in assay [6] (setting [14]), 0.64; in assay [6] (setting [15]), 0.58; in assay [6] (HCT116, combination with Taxol) it was 0.63. In addition, the Synergy entry in assay [2] (setting [7]) is “+++ (0.1 < CI < 0.3 (+++))”; in assay [2] (setting [8]), “++ (0.3 < CI < 0.7 (++))”; in assay [2] (setting [9]), “++ (0.3 < CI < 0.7 (++))”; in assay [2] (setting [10]), “++++ (CI < 0.1 (++++))”; in assay [2] (setting [11]), “++ (0.3 < CI < 0.7 (++))”; in assay [2] (SW620, combination with Taxol), “+++ (0.1 < CI < 0.3 (+++))”. Besides, the Synergy result was “++ (0.3 < CI < 0.7 (++))” in assay [3] (setting [12]); “++ (0.3 < CI < 0.7 (++))” in assay [3] (setting [13]); “++ (0.3 < CI < 0.7 (++))” in assay [6] (setting [14]); “++ (0.3 < CI < 0.7 (++))” in assay [6] (setting [15]); “++ (0.3 < CI < 0.7 (++))” in assay [6] (HCT116, combination with Taxol). Also, the EC50 in assay [1] (quantitative) worked out at 15 nM; in assay [4] (Homo sapiens, SW-620, 264 h, read-out: mean EC50, colony forming assay) it was 51 ± 69 nM; in assay [5] (quantitative), 1.6 nM. For the same compound, the “effect in colony forming assay” value in assay [4] is “dose-dependent effect”.

As for `CC1(C)Oc2cnccc2-c2c1cc(C(N)=O)n2CCF` [Example 52], the EC50 in assay [1] (semiquantitative) and in assay [5] (semiquantitative) was under 500 nM in each case.

`CCn1c(C(N)=O)c(-c2ccccc2OC)c2c1-c1ccncc1OC2(C)C` [Example 68]: the EC50 in assay [1] (semiquantitative) and in assay [5] (semiquantitative) was under 500 nM each time.
